Test results from US9067935B2 (Janssen Pharmaceutica, NV, priority 2010, dated 2015).
Read-outs that look alike come from different tables or passages of the source.

Target: canine TRPM8 (Canis lupus familiaris, UniProt Q1A7N1)
Experiment: In Vitro Canine TRPM8 Functional Assay (intracellular Ca2+ fluorescence, icilin challenge)
Format: cell-based
Conditions: for IC50: icilin at ~80% maximal response
Experimental: The functional activity of compounds of the formula (I) was determined by measuring changes in intracellular calcium concentration using a Ca^2+-sensitive fluorescent dye. The changes in fluorescent signal were monitored by a fluorescence plate reader, either a FLIPR™ (Molecular Devices) or FDSS (Hamamatsu).
At 24 hrs prior to assay, HEK293 cells stably expressing canine TRPM8 were seeded in culture medium in black wall, clear-base poly-D-lysine coated 384-well plates (BD Biosciences, NJ, USA) and grown overnight in 5% CO2 at 37° C. On assay day, growth media was removed and cells were loaded with Calcium 3 Dye (Molecular Devices) for 35 min at 37° C., under 5% CO2 and then for 25 min at room temperature and atmosphere. Subsequently, cells were tested for agonist-induced increases in intracellular Ca^2+ levels using FLIPR™ or FDSS. Cells were challenged with a compound of the Formula (I) (at varying concentrations) and intracellular Ca^2+ was measured for 5 min prior to the addition of icilin to all wells to achieve a final concentration that produces approximately an 80% maximal response. EC50 or IC50 values for compounds of the present invention were determined from eight-point dose-response studies. Curves were generated using the average of quadruplicate wells for each data point.

[1] = HEK293, @ 0.2 μM, HEK293 cells stably expressing canine TRPM8, read-out: % Inh (%) @ 0.2 μM
[2] = HEK293 cells stably expressing canine TRPM8
[3] = HEK293, read-out: % Inh (%) @ 0.2 μM

canine TRPM8, sequence (Q1A7N1 1-1104): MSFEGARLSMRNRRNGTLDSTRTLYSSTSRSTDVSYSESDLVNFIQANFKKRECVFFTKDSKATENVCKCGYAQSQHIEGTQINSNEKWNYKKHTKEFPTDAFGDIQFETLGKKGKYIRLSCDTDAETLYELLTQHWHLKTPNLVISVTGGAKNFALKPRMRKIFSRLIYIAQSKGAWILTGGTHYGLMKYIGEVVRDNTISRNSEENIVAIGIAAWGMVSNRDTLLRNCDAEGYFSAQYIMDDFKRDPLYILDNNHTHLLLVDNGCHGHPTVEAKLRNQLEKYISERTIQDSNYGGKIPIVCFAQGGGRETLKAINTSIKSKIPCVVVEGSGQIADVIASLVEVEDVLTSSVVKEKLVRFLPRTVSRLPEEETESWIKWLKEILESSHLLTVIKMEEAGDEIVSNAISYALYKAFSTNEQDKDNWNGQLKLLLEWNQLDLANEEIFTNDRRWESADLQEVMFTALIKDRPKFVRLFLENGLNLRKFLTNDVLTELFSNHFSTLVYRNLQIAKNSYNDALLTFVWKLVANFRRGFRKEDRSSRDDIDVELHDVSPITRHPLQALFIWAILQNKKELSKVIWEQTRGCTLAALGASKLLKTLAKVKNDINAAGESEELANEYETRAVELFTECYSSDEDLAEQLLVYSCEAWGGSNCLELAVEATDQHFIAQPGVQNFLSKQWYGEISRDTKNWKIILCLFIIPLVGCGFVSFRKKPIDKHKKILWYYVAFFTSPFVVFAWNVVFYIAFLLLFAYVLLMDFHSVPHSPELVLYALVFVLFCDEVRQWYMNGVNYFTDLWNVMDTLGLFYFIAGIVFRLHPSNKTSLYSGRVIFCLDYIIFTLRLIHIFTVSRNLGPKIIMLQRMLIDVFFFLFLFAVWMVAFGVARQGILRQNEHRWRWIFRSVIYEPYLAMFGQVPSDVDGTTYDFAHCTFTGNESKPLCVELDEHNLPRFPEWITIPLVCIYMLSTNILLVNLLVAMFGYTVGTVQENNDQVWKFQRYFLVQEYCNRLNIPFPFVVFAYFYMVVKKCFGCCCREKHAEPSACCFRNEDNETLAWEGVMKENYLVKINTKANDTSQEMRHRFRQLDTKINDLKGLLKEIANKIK

SMILES | inhibition at 0.2 µM [1] | IC50 [2] | EC50 [2] | % Inh (%) @ 0.2 μM (@ 0.2 μM, HEK293 cells stably expressing canine TRPM8) | inhibition at 0.2 µM [3]
O=S(=O)(c1ccc(-n2cccn2)cc1)N(Cc1ccc(F)c(C(F)(F)F)c1)c1nc2ccccn2c1Cl [Compound 95] | 99% | 7 nM | – | – | –
O=S(=O)(c1ccc(-n2cccn2)cc1)N(Cc1ccc(C(F)(F)F)c(F)c1)c1nc2ccccn2c1Cl [Compound 96] | 100% | 5.5 nM | – | – | –
O=S(=O)(c1ccc(-n2cccn2)cc1)N(Cc1ccc(OC(F)(F)F)cc1)c1nc2ccccn2c1Cl [Compound 97] | 99% | 8.48 nM | – | – | –
O=S(=O)(c1ccc(-n2cccn2)cc1)N(Cc1ccc(C(F)(F)F)cc1)c1nc2ccccn2c1Cl [Compound 98] | 99% | 4.04 nM | – | – | –
O=S(=O)(c1ccc(-n2cccn2)cc1)N(Cc1cccc(C(F)(F)F)c1)c1nc2ccccn2c1Cl [Compound 99] | 99% | 15.1 nM | – | – | –
Cc1c(N(Cc2ccc(C(F)(F)F)c(F)c2)S(=O)(=O)c2ccccc2)nc2ccc(C(F)(F)F)cn12 [Compound 100, N-(3-Fluoro-4-trifluoromethylbenzyl)-N-(3-methyl-6-trifluoromethylimidazo[1,2-a]pyridin-2-yl)benzenesulfonamide] | 31% | – | – | – | –
Cc1c(N(Cc2ccc(C(F)(F)F)c(F)c2)S(=O)(=O)c2ccccc2)nc2cc(C(F)(F)F)ccn12 [Compound 101] | 22% | – | – | – | –
Cc1c(N(Cc2ccc(F)c(C(F)(F)F)c2)S(=O)(=O)c2ccc(-n3cccn3)cc2)nc2ccc(Cl)cn12 [Compound 102, N-(6-chloro-3-methylimidazo[1,2-a]pyridin-2-yl)-N-(4-fluoro-3-trifluoromethylbenzyl)-4-(1H-pyrazol-1-yl)benzenesulfonamide] | 100% | 21.8 nM | – | – | –
COC(=O)c1ccc(S(=O)(=O)N(Cc2ccc(OC(F)(F)F)cc2)c2nc3ccccn3c2C(C)C)cc1 [Compound 108] | – | 10.4 nM | – | 101% | –
Cc1c(N(Cc2ccc(OC(F)(F)F)cc2)S(=O)(=O)c2ccc(C(=O)O)cc2)nc2ccc(Cl)cn12 [Compound 113, Sodium 4-(N-(6-Chloro-3-methylimidazo[1,2-a]pyridin-2-yl)-N-(4-trifluoromethoxybenzyl)sulfamoyl)benzoate] | – | 14.6 nM | – | – | 102%
Cc1c(N(Cc2ccc(F)c(F)c2)S(=O)(=O)c2ccc(C(=O)O)cc2)nc2ccc(Cl)cn12 [Compound 114] | – | – | – | – | 38%

Further lines, with some results ahead:

inhibition at 0.2 µM [1] | IC50 [2] | EC50 [2] | SMILES | % Inh (%) @ 0.2 μM (@ 0.2 μM, HEK293 cells stably expressing canine TRPM8) | inhibition at 0.2 µM [3]
98% | 24.5 nM | – | Cc1c(N(Cc2ccc(C(F)(F)F)c(F)c2)S(=O)(=O)c2ccc(-n3cccn3)cc2)nc2ccc(Cl)cn12 [Compound 103] | – | –
93% | 51.6 nM | – | Cc1c(N(Cc2ccc(OC(F)(F)F)cc2)S(=O)(=O)c2ccc(-n3cccn3)cc2)nc2ccc(Cl)cn12 [Compound 104] | – | –
98% | 30.3 nM | – | Cc1c(N(Cc2ccc(C(F)(F)F)cc2)S(=O)(=O)c2ccc(-n3cccn3)cc2)nc2ccc(Cl)cn12 [Compound 105] | – | –
– | – | 93 nM | Cc1c(N(Cc2ccc(OC(F)(F)F)cc2)S(=O)(=O)CCN(CC(C)C)CC(C)C)nc2cc(C(F)(F)F)ccn12 [Compound 106, N-(4-Trifluoromethoxybenzyl)-N-(7-trifluoromethyl-3-methylimidazo[1,2-a]pyridin-2-yl)-2-(N,N-diisobutylamino)ethylsulfonamide] | – | –
82% | 57.2 nM | – | COC(=O)c1ccc(S(=O)(=O)N(Cc2ccc(OC(F)(F)F)cc2)c2nc3ccc(Cl)cn3c2C)cc1 [Compound 110, Methyl 4-(N-(6-Chloro-3-methylimidazo[1,2-a]pyridin-2-yl)-N-(4-trifluoromethoxybenzyl)sulfamoyl)benzoate] | – | –
73% | 81.5 nM | – | COC(=O)c1ccc(S(=O)(=O)N(Cc2ccc(F)c(F)c2)c2nc3ccc(Cl)cn3c2C)cc1 [Compound 111] | – | –
83% | 82.1 nM | – | COC(=O)c1ccc(S(=O)(=O)N(Cc2ccc(F)c(C(F)(F)F)c2)c2nc3ccc(Cl)cn3c2C)cc1 [Compound 112] | – | –
